Data published in patent publication US8637312B2, “Mammalian culture media with polyamine and iron” (Cellca GmbH, priority 2008, dated 2014).

Columns and labels:
rat hepatoma cells = settings: 100 μM in culture medium; Itoh et al. 1994; cited from earlier work
CHO DG44 host cell line [1] = assay: High cell density fed-batch culture of antibody producing CHO clone, cell growth; format: cell-based, Chinese hamster; settings: for requirement for optimal cell growth: Example 6, FIG. 6, spermine with iron (III) citrate, iron (III) citrate supplemented at day 6 to 400 mg/l; for effect of spermine and iron together on cell growth: Example 1, FIG. 1, both at high concentration, feed media polyamine and iron free
Description: (§1) For all experiments a CHO DG44 host cell line (Urlaub and Chasin, Proc. Natl. Acad. Sci. USA, 1980, 77: 4216) was used. This host cell line was transfected with a vector carrying the gene of an IgG antibody. Transfectants were amplified using MTX in culture medium. An antibody producing clone was isolated and this clone was then used for all experiments.
(§2) Stock culture cells were kept in a shake flask or in a spinner flask. The stock culture was split into fresh culture medium every two or three days. That means, a small amount of cell culture was used as inoculum and transferred into a new flask and supplemented with fresh culture medium. Cells were cultured at 37° C. in CO2 atmosphere in an incubator. In this way cells were cultured in several passages. One passage is defined as a culture duration of 2-4 days. At different time points inoculum cells were taken from the stock culture and experiments were performed in various scales, for examples in 6-well plates, shake flasks, T-flasks, spinner flasks and bioreactors.
A basal medium as follows (in the following also termed proprietary culture medium) was used for cultivation of cells in all steps, e.g. in the stock culture, in the culture expansion step and in the production step. The basal medium contains all necessary substances for cell growth, cell viability and cellular productivity. The basal medium contains glucose at 1.0-6.0 g/l, NaCl 2.8-6.2 g/l, KCl 273-945 mg/l, CaCl2 48-290 mg/l, MgCl2 42-330 mg/l, NaH2PO4 56-1130 mg/l, Arginine 56-930 mg/l, Asparagine 44-900 mg/l, Aspartic acid 26-445 mg/l, Cysteine 35-270 mg/l, Glutamic acid 44-900 mg/, Glutamine 44-900 mg/l, Glycine 18-180 mg/l, Histidine 42-670 mg/l, Isoleucine 54-877 mg/l, Leucine 59-1250 mg/l, Lysine 73-1120 mg/l, Methionine 9-454 mg/l, Phenylalanine 35-677 mg/l, Proline 17-828 mg/l, Serine 26-1339 mg/l, Threonine 24-989 mg/l, Tryptophane 9-441 mg/l, Tyrosine 55-565 mg/l, Valine 52-787 mg/l, NaHCO3 2,4 g/l. The basal medium further comprises fatty acids and nucleotides. In all batch and fed-batch experiments the same proprietary culture medium and proprietary feed medium were used, unless otherwise stated. The feed medium used in fed-batch experiments (in the following also termed “proprietary feed medium”) has all necessary substances for cell growth, cell viability and cellular productivity, in particular salts, trace elements, carbohydrates, amino acids, fatty acids, pH regulator, nucleotides. Even though here a rich feed medium is used containing above mentioned substances, feed media must not comprise all of these components. Feed media consisting of one or more of above mentioned substances are suitable also. Both basal medium and feed medium are serum free, protein free, peptone free and peptide free. However, supplementation of media with one or more of above mentioned additives is possible. Thus, both media are chemically defined, consisting of only single, fully defined chemicals.
Experiments were performed either in batch or in fed-batch modus. If an experiment was designed for fed-batch modus, it was started by inoculating the flask with stock culture cells in the production medium (culture medium). Culture flasks were inoculated with an inoculation cell density of 2 to 4×10^5 viable cells per millilitre. Cells were cultured for 1 to 4 days. The culture was supplemented thereafter with a feed medium for first time. Feeding was done batch wise every 1 to 3 days. Feeding the culture with feed medium was performed batch wise (bolus addition). Feeding of culture can also be done continuously, especially in bioreactors. In fed-batch experiments two different feed media were used. However, it is possible to use one or more than two different feed media. The culture was incubated as long as the cell viability was greater than 50%. Thus, culture duration was approximately 10 to 18 days. Every day samples were taken from cultures and analytical processes were done, such as cell count and metabolite measurements. […]

CHO DG44 host cell line [2] = assay: Batch culture of antibody producing CHO clone, cell growth; format: cell-based, Chinese hamster; settings: for effect of spermine and iron together on cell concentration: Example 5, FIG. 5, spermine with iron (III) nitrate nonahydrate, both at high concentration
Description: as §1, §2
A basal medium as follows (in the following also termed proprietary culture medium) was used for cultivation of cells in all steps, e.g. in the stock culture, in the culture expansion step and in the production step. The basal medium contains all necessary substances for cell growth, cell viability and cellular productivity. The basal medium contains glucose at 1.0-6.0 g/l, NaCl 2.8-6.2 g/l, KCl 273-945 mg/l, CaCl2 48-290 mg/l, MgCl2 42-330 mg/l, NaH2PO4 56-1130 mg/l, Arginine 56-930 mg/l, Asparagine 44-900 mg/l, Aspartic acid 26-445 mg/l, Cysteine 35-270 mg/l, Glutamic acid 44-900 mg/, Glutamine 44-900 mg/l, Glycine 18-180 mg/l, Histidine 42-670 mg/l, Isoleucine 54-877 mg/l, Leucine 59-1250 mg/l, Lysine 73-1120 mg/l, Methionine 9-454 mg/l, Phenylalanine 35-677 mg/l, Proline 17-828 mg/l, Serine 26-1339 mg/l, Threonine 24-989 mg/l, Tryptophane 9-441 mg/l, Tyrosine 55-565 mg/l, Valine 52-787 mg/l, NaHCO3 2,4 g/l. The basal medium further comprises fatty acids and nucleotides. In all batch and fed-batch experiments the same proprietary culture medium and proprietary feed medium were used, unless otherwise stated. The feed medium used in fed-batch experiments (in the following also termed “proprietary feed medium”) has all necessary substances for cell growth, cell viability and cellular productivity, in particular salts, trace elements, carbohydrates, amino acids, fatty acids, pH regulator, nucleotides. Even though here a rich feed medium is used containing above mentioned substances, feed media must not comprise all of these components. Feed media consisting of one or more of above mentioned substances are suitable also. Both basal medium and feed medium are serum free, protein free, peptone free and peptide free. […]

[3] = oligopeptide-free medium; WO 2007/077217; cited from earlier work
[4] = tested on: BHK (baby hamster kidney) cells; settings: adherent growing BHK cells, serum containing medium; Brunton et al. 1991; cited from earlier work
[5] = tested on: CHO (Chinese hamster ovary) cells; settings: 10 μM ferric iron plus spermine 0 to 100 μM, serum containing medium; Gaboriau et al. 2004; cited from earlier work
[6] = Example 8, FIG. 8, in the presence of spermine

[Fe+3] [ferric (Fe^3+) iron]
mitochondrial DNA damage (rat hepatoma cells): damaged

[Fe+2] [ferrous (Fe^2+)]
mitochondrial DNA damage (rat hepatoma cells): damaged

O=C([O-])CC(O)(CC(=O)[O-])C(=O)[O-].[Fe+3] [iron (III) citrate]
requirement for optimal cell growth (CHO DG44 host cell line [1]): required

O.O.O.O.O.O.O.O.O.O=[N+]([O-])[O-].O=[N+]([O-])[O-].O=[N+]([O-])[O-].[Fe+3] [iron (III) nitrate nonahydrate]
effect of spermine and iron together on cell concentration (CHO DG44 host cell line [2]): synergistic effects

O=P([O-])([O-])[O-].[Fe+3] [iron (III) phosphate]
effect of high iron concentration on cell growth (CHO DG44 host cell line [1]; [6]): promotes cell growth
toxicity of high iron concentration to the cells (CHO DG44 host cell line [1]; [6]): not toxic

NCCCCN [putrescine]
efficiency among amines in promoting cell specific productivity [3]: most efficient amine

NCCCCNCCCN [spermidine]
cell concentration reached (CHO DG44 host cell line [2]; Example 2, FIG. 2, 100 mg/l iron (III) pyrophosphate hydrate, with versus without spermidine): higher concentration
toxicity of spermidine (CHO DG44 host cell line [2]; Example 2, FIG. 2, tested high concentrations, 100 mg/l iron (III) pyrophosphate hydrate): not visible

NCCCNCCCCNCCCN [spermine]
effect of spermine and iron together on cell growth (CHO DG44 host cell line [1]): synergistic effect
cell growth with increasing spermine concentration (CHO DG44 host cell line [1]; Example 3, FIG. 3, 100 mg/l iron (III) pyrophosphate hydrate in medium, 800 mg/l in feed): grow better
requirement for optimal cell growth (CHO DG44 host cell line [1]): required
effect of spermine on cell growth (CHO DG44 host cell line [1]; Example 7, FIG. 7, iron (III) citrate as iron source, feed 3200 mg/l iron (III) citrate): positive effect
effect of spermine on cell growth (CHO DG44 host cell line [1]; Example 8, FIG. 8, iron (III) phosphate as iron source, feed 800 mg/l iron (III) phosphate): positive effect
effect of spermine and iron together on cell concentration (CHO DG44 host cell line [2]): synergistic effects
toxicity to cells [4]: toxic
number of viable cells [5]: decreases the number of viable cells in a dose-dependent manner
cellular productivity on increasing concentration above 2 mg/l [3]: does not significantly increase

iron
need of iron for cell growth (CHO DG44 host cell line [1]; Example 1, FIG. 1): essential
effect of spermine and iron together on cell growth (CHO DG44 host cell line [1]): synergistic effect

iron dextran
effect of high iron concentration on cell growth (CHO DG44 host cell line [1]; Example 9, FIG. 9, 40 mg/l spermine, iron dextran fed at day 6 to 250 mg/l): promotes cell growth
